Assay results as given in PubChem BioAssay (NCI).
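A five-concentration, 48-hour dose response in 96-well plates underlies each endpoint, interpolated linearly between surrounding concentrations. At the GI50, growth is halved. TGI marks complete inhibition of growth.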

What was measured:
Test in all cases: growth of human tumour cells (NCI), 48 h
KM12 colon = tested on: KM12 colon
A549 NSCLC = tested on: A549 NSCLC
HCT-116 colon = tested on: HCT-116 colon
CCRF-CEM leukemia = tested on: CCRF-CEM leukemia
NCI-H226 lung = tested on: NCI-H226 lung
RXF 393 renal = tested on: RXF 393 renal
UACC-62 melanoma = tested on: UACC-62 melanoma
K-562 leukemia = tested on: K-562 leukemia
UACC-257 melanoma = tested on: UACC-257 melanoma
HOP-92 NSCLC = tested on: HOP-92 NSCLC

SMILES | TGI (KM12 colon) [µM] | TGI (A549 NSCLC) [µM] | TGI (HCT-116 colon) [µM] | TGI (CCRF-CEM leukemia) [µM] | TGI (NCI-H226 lung) [µM] | TGI (RXF 393 renal) [µM] | TGI (UACC-62 melanoma) [µM] | TGI (K-562 leukemia) [µM] | TGI (UACC-257 melanoma) [µM] | GI50 (KM12 colon) [µM] | GI50 (A549 NSCLC) [µM] | GI50 (HCT-116 colon) [µM] | GI50 (NCI-H226 lung) [µM] | GI50 (HOP-92 NSCLC) [µM] | TGI (HOP-92 NSCLC) [µM] | GI50 (RXF 393 renal) [µM] | GI50 (UACC-62 melanoma) [µM] | GI50 (UACC-257 melanoma) [µM] | GI50 (CCRF-CEM leukemia) [µM] | GI50 (K-562 leukemia) [µM]
CC1=NN(C(=O)c2cc(Cl)cc([N+](=O)[O-])c2)C(=O)C1N=Nc1ccccc1C(=O)O (centres undefined) | > 100 | > 100 | > 100 | > 100 | > 100 | > 100 | > 100 | > 100 | > 100 |  |  |  |  |  |  |  |  |  |  | 
Cc1ccc(/C=C2\CN(Cc3cn(CCNc4ccnc5cc(Cl)ccc45)nn3)C/C(=C\c3ccc(C)cc3)C2=O)cc1 | 3.28 | 3.73 | 3.27 |  | 4.8 | 3.36 | 3.43 |  | 3.38 | 1.65 | 1.8 | 1.68 | 2.03 | 1.45 | 3.01 | 1.67 | 1.88 | 1.7 |  | 
CCOC(=O)NC(=O)c1cn(C2OC(CO)C(O)C2O)c(=O)[nH]c1=O (centres undefined) | > 100 | > 100 | > 100 |  | > 100 | > 100 | > 100 | > 100 | > 100 |  |  |  |  |  |  |  |  |  |  | 
COC(=O)C12C3C4C1C1C2C3C41C(=O)N(C(C)C)C(C)C (centres undefined) | > 100 | > 100 | > 100 | > 100 | > 100 |  | > 100 | > 100 | > 100 |  |  |  |  |  | > 100 |  |  |  |  | 
CCC1(CC)C(=O)[N-]C(=O)[N-]C1=O.[Au+].[Au+].c1ccc([PH+](c2ccccc2)c2ccccc2)cc1.c1ccc([PH+](c2ccccc2)c2ccccc2)cc1 |  |  |  |  |  |  | 2.2 |  | 2.53 |  |  |  |  |  |  |  | 1.02 | 1.26 |  | 
CCOC(=O)/C(C#N)=C(N)/C(=N\Nc1cccc(C(F)(F)F)c1)C(=O)OCC |  | > 100 | > 100 | > 100 | > 100 |  | > 100 |  | > 100 |  |  |  |  |  | > 100 |  |  |  |  | 
CC[C@H](C)[C@H](NC(=O)c1nccn1C)C(=O)N(C)[C@H](C[C@@H](OC(C)=O)c1nc(C(=O)N[C@@H](Cc2ccccc2)C[C@H](C)C(=O)OC)cs1)C(C)C | > 33.3 | > 33.3 | > 33.3 | > 33.3 | > 33.3 |  | > 33.3 | > 33.3 |  | 0.553 | 2.43 | 0.724 | 8.51 | 4.86 | > 33.3 |  | 0.289 |  | 1.04 | 0.796
O=C(O)c1oc2cccc3c2c1CCC3 | > 100 | > 100 | > 100 | > 100 |  | > 100 | > 100 | > 100 | > 100 |  |  |  |  |  | > 100 |  |  |  |  | 
CN1N=Nc2c(C(F)(F)F)nn(-c3ccccc3)c2N(C)C1=O | > 100 | > 100 | > 100 |  | > 100 | > 100 | > 100 | > 100 | > 100 | > 100 | > 100 | > 100 | > 100 | > 100 | > 100 |  | > 100 | > 100 |  | > 56.4
CC(=O)NS(=O)(=O)c1ccc(-n2nc(-c3ccccc3)cc2C2=CC(=O)C=CC2=O)cc1 | > 100 | > 100 | > 100 |  | > 100 | > 100 | > 100 | > 100 | > 100 | > 100 | > 100 | 33.5 | > 100 | > 100 | > 100 | > 100 | > 100 | > 100 |  | 57
C[C@]12CC[C@H]3[C@@H](CCC4=C[C@@H](OC5OCC(OC6OC(CO)C(O)C(O)C6O)C(O)C5O)CC[C@@]43C=O)[C@@]1(O)CCC2C1=CC(=O)OC1 (some centres undefined) | 13.9 | 0.484 | 1.25 | > 100 | 5.79 | 1.2 | 4.29 | 3.38 |  |  |  |  |  |  | 5.13 |  |  |  |  | 
N=C1C(c2nc(-c3ccc(Br)cc3)cs2)=C(O)CN1CC1CCCO1 (centres undefined) | > 100 | > 100 |  | > 100 | > 100 | > 100 | > 100 | > 100 | > 100 | > 100 | > 100 |  | > 100 | > 100 | > 100 | > 100 | > 100 | > 100 | > 100 | > 100
CC(=O)O[C@H](C[C@H](C(C)C)N(C)C(=O)[C@@H](NC(=O)[C@H]1CCCCN1C)C(C)(C)C)c1nc(C(=O)N[C@@H](Cc2ccccc2)C[C@H](C)C(=O)O)cs1 |  | > 25 | > 25 | > 25 |  | > 25 | > 25 | > 25 |  | < 0.0025 | < 0.0025 | < 0.0025 | 0.0348 | < 0.0025 | 0.297 | < 0.0025 | < 0.0025 |  | < 0.0025 | < 0.0025
CCCCCCCCCCCCCCC(O)C1CCC(C(O)CCC(O)CCCCCC(O)CC2=CC(C)OC2=O)O1 (centres undefined) |  | 13.2 | 11.1 | 5.12 | 7.27 |  | 13.3 | 3.68 | 2.94 |  |  |  |  |  | 11.7 |  |  |  |  | 
O=C1C2=C(c3ccccc31)C(c1ccc(Cl)cc1)NC(=S)N2 (centres undefined) | 52.5 | 39 | 28.3 | 54.6 | 67.7 |  | 70.9 | 40.2 | > 100 |  |  |  |  |  | 41.2 |  |  |  |  | 
COc1cc(C(=O)C/C(CCC(=O)Nc2ccc(Cl)cc2Cl)=N/Nc2nnc(C)n2N)ccc1O | > 100 | > 100 | > 100 | > 100 | > 100 | > 100 | > 100 |  | > 100 |  |  |  |  |  | > 100 |  |  |  |  | 
N#Cc1c(NCc2ccccc2)nc(NCc2ccccc2)c(C#N)c1-c1cccc(O)c1 | > 100 | 63.5 | 16.1 | > 100 | 7.86 | 34.9 | 7.04 |  | > 100 | 4.03 | 13.3 | 4.48 | 2.91 | 2.51 | 18.9 | 13.8 | 2.1 | > 100 | 3.38 | 
O=C(Nc1ccccc1C(=O)O)C(=O)C(C(=O)c1ccccc1-c1ccccc1)C1OC(=O)c2ccccc21 (centres undefined) | 33.6 | 81.9 | 36.5 | 78.4 | 29.3 | 27.2 | 35.7 | > 100 | 37.7 |  |  |  |  |  |  |  |  |  |  | 
